# In US12077503B2, “Substituted cyclic amides and their use as herbicides” (FMC CORPORATION, priority 2015, dated 2024):
# Assays:
# Experiment in all cases: Test C preemergence
# Assay type in all cases: in vivo
# soybean (Glycine max) = conditions: for Plant response rating, Soybean: scale 0 to 100, 0 no effect, 100 complete control
# How it was run: (§1)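 Assessment: visual, 13–15 d after treatment, 0 (no effect) to 100 (complete control) relative to controls. Treatment: preemergence to seeds in loam-sand soil, or postemergence to 1- to 4-leaf plants in peat-based medium. Formulation: non-phytotoxic solvent mixture with surfactant.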
# [1] = tested on: morningglory (Ipomoea coccinea); conditions: for Plant response rating, Morningglory: scale 0 to 100, 0 no effect, 100 complete control
# How it was run: as §1
# [2] = tested on: waterhemp (common waterhemp, Amaranthus rudis); conditions: for Plant response rating, Waterhemp: scale 0 to 100, 0 no effect, 100 complete control
# How it was run: as §1
# [3] = tested on: velvetleaf (Abutilon theophrasti); conditions: for Plant response rating, Velvetleaf: scale 0 to 100, 0 no effect, 100 complete control
# How it was run: as §1
# [4] = tested on: barnyardgrass (Echinochloa crus-galli); conditions: for Plant response rating, Barnyardgrass: scale 0 to 100, 0 no effect, 100 complete control
# How it was run: as §1
# [5] = tested on: ragweed (common ragweed, Ambrosia elatior); conditions: for Plant response rating, Ragweed: scale 0 to 100, 0 no effect, 100 complete control
# How it was run: as §1
# corn (Zea mays) = conditions: for Plant response rating, Corn: scale 0 to 100, 0 no effect, 100 complete control
# How it was run: as §1
# [6] = tested on: wheat (winter wheat, Triticum aestivum); conditions: for Plant response rating, Wheat: scale 0 to 100, 0 no effect, 100 complete control
# How it was run: as §1
# [7] = tested on: nutsedge, yellow (yellow nutsedge, Cyperus esculentus); conditions: for Plant response rating, Nutsedge, Yellow: scale 0 to 100, 0 no effect, 100 complete control
# How it was run: as §1
# [8] = tested on: Galium (catchweed bedstraw, Galium aparine); conditions: for Plant response rating, Galium: scale 0 to 100, 0 no effect, 100 complete control
# How it was run: as §1
# [9] = tested on: blackgrass (Alopecurus myosuroides); conditions: for Plant response rating, Blackgrass: scale 0 to 100, 0 no effect, 100 complete control
# How it was run: as §1
# [10] = tested on: crabgrass, large (large crabgrass, Digitaria sanguinalis); conditions: for Plant response rating, Crabgrass, Large: scale 0 to 100, 0 no effect, 100 complete control
# How it was run: as §1
# [11] = tested on: ryegrass, Italian (Italian ryegrass, Lolium multiflorum); conditions: for Plant response rating, Ryegrass, Italian: scale 0 to 100, 0 no effect, 100 complete control
# How it was run: as §1
# [12] = tested on: lambsquarters (Chenopodium album); conditions: for Plant response rating, Lambsquarters: scale 0 to 100, 0 no effect, 100 complete control
# How it was run: as §1
# [13] = tested on: foxtail, giant (giant foxtail, Setaria faberii); conditions: for Plant response rating, Foxtail, Giant: scale 0 to 100, 0 no effect, 100 complete control
# How it was run: as §1
# [14] = tested on: pigweed (Amaranthus retroflexus); conditions: for Plant response rating, Pigweed: scale 0 to 100, 0 no effect, 100 complete control
# How it was run: as §1
# [15] = tested on: oilseed rape (Brassica napus); conditions: for Plant response rating, Oilseed Rape: scale 0 to 100, 0 no effect, 100 complete control
# How it was run: as §1
# [16] = 31 g ai/ha, 0 is no effect, 100 is complete control
smiles,measurement,setting,value
O=C1NCC(c2cc(F)cc(Cl)c2)C1C(=O)Nc1cccc(F)c1F (centres unmarked) [Compound 492],"Plant response rating (scale of 0 to 100), Soybean",soybean (Glycine max); [16],50
same,"Plant response rating, Soybean",soybean (Glycine max); 62 g ai/ha,0
same,"Plant response rating, Soybean",soybean (Glycine max); 125 g ai/ha,40
same,"Plant response rating, Soybean",soybean (Glycine max); 250 g ai/ha,0
same,"Plant response rating (scale of 0 to 100), Morningglory",[1]; [16],0
same,"Plant response rating, Morningglory",[1]; 62 g ai/ha,10
same,"Plant response rating, Morningglory",[1]; 125 g ai/ha,20
same,"Plant response rating, Morningglory",[1]; 250 g ai/ha,45
same,"Plant response rating (scale of 0 to 100), Waterhemp",[2]; [16],0
same,"Plant response rating, Waterhemp",[2]; 62 g ai/ha,10
same,"Plant response rating, Waterhemp",[2]; 125 g ai/ha,40
same,"Plant response rating, Waterhemp",[2]; 250 g ai/ha,65
same,"Plant response rating (scale of 0 to 100), Velvetleaf",[3]; [16],0
same,"Plant response rating, Velvetleaf",[3]; 62 g ai/ha,0
same,"Plant response rating, Velvetleaf",[3]; 125 g ai/ha,5
same,"Plant response rating, Velvetleaf",[3]; 250 g ai/ha,5
same,"Plant response rating (scale of 0 to 100), Barnyardgrass",[4]; [16],80
same,"Plant response rating, Barnyardgrass",[4]; 62 g ai/ha,90
same,"Plant response rating, Barnyardgrass",[4]; 125 g ai/ha,90
same,"Plant response rating, Barnyardgrass",[4]; 250 g ai/ha,95
same,"Plant response rating (scale of 0 to 100), Ragweed",[5]; [16],0
same,"Plant response rating, Ragweed",[5]; 62 g ai/ha,10
same,"Plant response rating, Ragweed",[5]; 125 g ai/ha,35
same,"Plant response rating, Ragweed",[5]; 250 g ai/ha,45
same,"Plant response rating (scale of 0 to 100), Corn",corn (Zea mays); [16],0
same,"Plant response rating, Corn",corn (Zea mays); 62 g ai/ha,10
same,"Plant response rating, Corn",corn (Zea mays); 125 g ai/ha,55
same,"Plant response rating, Corn",corn (Zea mays); 250 g ai/ha,85
same,"Plant response rating (scale of 0 to 100), Wheat",[6]; [16],0
same,"Plant response rating, Wheat",[6]; 62 g ai/ha,0
same,"Plant response rating, Wheat",[6]; 125 g ai/ha,5
same,"Plant response rating, Wheat",[6]; 250 g ai/ha,35
same,"Plant response rating (scale of 0 to 100), Nutsedge, Yellow",[7]; [16],0
same,"Plant response rating, Nutsedge, Yellow",[7]; 62 g ai/ha,0
same,"Plant response rating, Nutsedge, Yellow",[7]; 125 g ai/ha,0
same,"Plant response rating, Nutsedge, Yellow",[7]; 250 g ai/ha,0
same,"Plant response rating (scale of 0 to 100), Galium",[8]; [16],85
same,"Plant response rating, Galium",[8]; 62 g ai/ha,0
same,"Plant response rating, Galium",[8]; 125 g ai/ha,0
same,"Plant response rating, Galium",[8]; 250 g ai/ha,85
same,"Plant response rating (scale of 0 to 100), Blackgrass",[9]; [16],0
same,"Plant response rating, Blackgrass",[9]; 62 g ai/ha,5
same,"Plant response rating, Blackgrass",[9]; 125 g ai/ha,10
same,"Plant response rating, Blackgrass",[9]; 250 g ai/ha,10
same,"Plant response rating (scale of 0 to 100), Crabgrass, Large",[10]; [16],90
same,"Plant response rating, Crabgrass, Large",[10]; 62 g ai/ha,95
same,"Plant response rating, Crabgrass, Large",[10]; 125 g ai/ha,95
same,"Plant response rating, Crabgrass, Large",[10]; 250 g ai/ha,95
same,"Plant response rating (scale of 0 to 100), Ryegrass, Italian",[11]; [16],0
same,"Plant response rating, Ryegrass, Italian",[11]; 62 g ai/ha,5
same,"Plant response rating, Ryegrass, Italian",[11]; 125 g ai/ha,25
same,"Plant response rating, Ryegrass, Italian",[11]; 250 g ai/ha,20
same,"Plant response rating (scale of 0 to 100), Lambsquarters",[12]; [16],25
same,"Plant response rating, Lambsquarters",[12]; 62 g ai/ha,35
same,"Plant response rating, Lambsquarters",[12]; 125 g ai/ha,40
same,"Plant response rating, Lambsquarters",[12]; 250 g ai/ha,50
same,"Plant response rating (scale of 0 to 100), Foxtail, Giant",[13]; [16],90
same,"Plant response rating, Foxtail, Giant",[13]; 62 g ai/ha,90
same,"Plant response rating, Foxtail, Giant",[13]; 125 g ai/ha,90
same,"Plant response rating, Foxtail, Giant",[13]; 250 g ai/ha,95
same,"Plant response rating (scale of 0 to 100), Pigweed",[14]; [16],0
same,"Plant response rating, Pigweed",[14]; 62 g ai/ha,25
same,"Plant response rating, Pigweed",[14]; 125 g ai/ha,75
same,"Plant response rating, Pigweed",[14]; 250 g ai/ha,80
same,"Plant response rating (scale of 0 to 100), Oilseed Rape",[15]; [16],0
same,"Plant response rating, Oilseed Rape",[15]; 62 g ai/ha,50
same,"Plant response rating, Oilseed Rape",[15]; 125 g ai/ha,85
same,"Plant response rating, Oilseed Rape",[15]; 250 g ai/ha,85
